# Measurements taken from patent publication EP0565593B1, “REDUCING PESTICIDAL INTERACTIONS IN CROPS” (priority 1990, dated 1992).
# Like-named read-outs stand apart in the source and are kept apart here.
# Experiments:
# [1] = system: Corn; experiment: Greenhouse test Procedure I with PPI or POE herbicide and foliar insecticide (Example 5; Table 5); assay type: in vivo
# Experimental: (§1) Containers were filled and compacted with a fumigated silt loam top soil to a depth of about 1.3 cm from the top of the container. A first container was designated as an untreated control, a second container was designated as a herbicide control, and a third container was designated as a herbicide + antidote test container. Each of the containers was seeded with a crop species. A measured amount of herbicide dispersed or dissolved in acetone was applied to a measured quantity of soil. To this same quantity of soil treated with herbicide, there was added a measured amount of antidote dispersed or dissolved in acetone. The quantity of soil treated with the herbicide and antidote was thoroughly mixed to incorporate the herbicide and antidote in the soil uniformly. The seed bed in the third container of soil was covered with the soil treated with the herbicide and antidote and the container was leveled. For each test series, the seed beds of the first and second containers were likewise covered by soil layers. the cover layer of the first container was not treated with herbicide or antidote.
# (§2) Insecticide application was made as described in the tests in the examples below. The containers were then placed on a bench in a greenhouse and sub-irrigated as required for the duration of the test.
# (§3) Said herbicide and antidote were sequentially pipetted onto cover layers, which were spread over the seed beds and subirrigated as in Procedure I and allowed to grow to a height of about 10 cm over a period of 11 days. Herbicide No. 1 and Insecticide No. 2 were then sequentially sprayed on the plant foliage. Observations were made three (3) weeks after initial treatment, 10 days after foliar treatment).
# [2] = system: Corn; experiment: Greenhouse test Procedure II: herbicide, insecticide and antidote incorporated in cover layer (Example 4; Table 4); assay type: in vivo; conditions: 3 weeks
# Experimental: as §1
# This procedure is the same as Procedure I, but modified in the manner that after incorporation of the chemicals (herbicide, antidote and insecticide), the containers with the covered seedbed were treated with an initial overhead irrigation equivalent to 0.6 cm rainfall, then subsequently sub-irrigated as required on greenhouse benches.
# The procedure used in this test was Procedure No. 2 above. Formulations of herbicide, insecticide and antidote were applied via track sprayer sequentially onto cover layers, incorporated into the soil which was spread over seedbeds, then irrigated from above with 0.6 cm water. Observations were made three (3) weeks after treatment.
# [3] = system: VELE (velvetleaf); experiment: Greenhouse test Procedure I with PPI or POE herbicide and foliar insecticide (Example 5; Table 5); assay type: in vivo, Abutilon theophrasti
# Experimental: as §1, §2, §3
# [4] = system: Corn; experiment: whole plant or invertebrate; conditions: Zea mays, iv, 312 h
# [5] = system: SJCA; experiment: Greenhouse test Procedure IV: herbicide, biocide and antidote PPI, weed SJCA (Examples 53-55; Tables 52-54); assay type: in vivo; conditions: all PPI; for % Inhibition SJCA: Herbicide No. 1, rate printed as '-'
# Text: The test in this example paralleled that in Example 51, except the procedure was according to Procedure IV above and the herbicides used were No. 1 (MON-12000); No. 21 (XRD-498) and, again, No. 18 (PURSUIT); the biocide was, again, MOCAP®. Observations were taken thirteen (13) days after PPI treatment with biocide and antidote.
# This test was identical to that in Example 52, except for use of a different biocide, DIAZINON (Biocide No. 5, a nematicide and soil insecticide).
# This test was also identical to that in the preceding two examples, except that the biocide was malathion (No. 7, an insecticide).
# This test was identical to the preceding ones, except the biocide was DPX-43898 (No. 6, active ingredient in FORTRESS® insecticide, a soil insecticide). Also, the observation time was fourteen (14) days after PPI initiation.
# [6] = Antidote 1 0.14 + Herbicide 1 0.14 Kg/Ha PPI, 3 weeks
# [7] = Antidote 1 0.56 + Herbicide 1 0.56 Kg/Ha PPI, 3 weeks
# [8] = Antidote 1 2.24 + Herbicide 1 2.24 Kg/Ha PPI, 3 weeks
# [9] = Insecticide 2 1.68 (foliar) + Antidote 1 0.14 + Herbicide 1 0.14 Kg/Ha PPI, 3 weeks
# [10] = Insecticide 2 1.68 (foliar) + Antidote 1 2.24 + Herbicide 1 2.24 Kg/Ha PPI, 3 weeks
# [11] = Insecticide 2 1.68 (foliar) + Antidote 1 2.24 Kg/Ha PPI, no herbicide, 3 weeks
# [12] = Herbicide 1 0.07 Kg/Ha POE, 10 days after foliar treatment
# [13] = Herbicide 1 0.14 Kg/Ha PPI, 3 weeks
# [14] = Herbicide 1 0.28 Kg/Ha POE, 10 days after foliar treatment
# [15] = Herbicide 1 0.56 Kg/Ha PPI, 3 weeks
# [16] = Herbicide 1 1.12 Kg/Ha POE, 10 days after foliar treatment
# [17] = Herbicide 1 2.24 Kg/Ha PPI, 3 weeks
# [18] = Insecticide 2 1.68 (foliar) + Herbicide 1 0.14 Kg/Ha PPI, 3 weeks
# [19] = Insecticide 2 1.68 (foliar) + Herbicide 1 0.56 Kg/Ha PPI, 3 weeks
# [20] = Insecticide 2 1.68 (foliar) + Herbicide 1 2.24 Kg/Ha PPI, 3 weeks
# [21] = Insecticide 2 1.68 + Herbicide 1 0.07 Kg/Ha POE, 10 days after foliar treatment
# [22] = Insecticide 2 1.68 + Herbicide 1 0.28 Kg/Ha POE, 10 days after foliar treatment
structure (smiles),measurement,setting,value
"CC1(C)OC(c2ccco2)CN1C(=O)C(Cl)Cl (centres unmarked) [Antidote No. 1, Oxazolidine, 3-(dichloroacetyl)-2,2-dimethyl-5-(2-furanyl)-]",% Injury Corn,[1]; [6],0%
same,% Injury Corn,[1]; [7],5%
same,% Injury Corn,[1]; [8],0%
same,safening,[1]; Ex. 5: PPI Herbicide No. 1 with or without Insecticide No. 2,safened PPI herbicide treatments
same,% Injury Corn,[1]; [9],0%
same,% Injury Corn,[1]; [10],0%
same,% Injury Corn,[1]; [11],0%
same,% Injury Corn,[2]; Antidote 1 0.07 + Herbicide 1 0.07 kg/Ha,0%
same,% Injury Corn,[2]; Antidote 1 0.07 + Herbicide 4 0.07 kg/Ha,0%
same,% Injury Corn,[2]; Antidote 1 0.07 + Herbicide 5 0.07 kg/Ha,20%
same,% Injury Corn,[2]; Antidote 1 0.07 + Herbicide 6 0.07 kg/Ha,0%
same,% Injury Corn,[2]; Antidote 1 0.14 + Herbicide 1 0.14 kg/Ha,10%
same,% Injury Corn,[2]; Antidote 1 0.14 + Herbicide 4 0.14 kg/Ha,8%
same,% Injury Corn,[2]; Antidote 1 0.14 + Herbicide 5 0.14 kg/Ha,55%
same,% Injury Corn,[2]; Antidote 1 0.14 + Herbicide 6 0.14 kg/Ha,3%
same,% Injury Corn,[2]; Insecticide 2 3.36 + Antidote 1 0.014 + Herbicide 1 0.14 kg/Ha,0%
same,% Injury Corn,[2]; Insecticide 2 3.36 + Antidote 1 0.07 + Herbicide 1 0.07 kg/Ha,0%
same,% Injury Corn,[2]; Insecticide 2 3.36 + Antidote 1 0.07 + Herbicide 4 0.07 kg/Ha,25%
same,% Injury Corn,[2]; Insecticide 2 3.36 + Antidote 1 0.07 + Herbicide 5 0.07 kg/Ha,95%
same,% Injury Corn,[2]; Insecticide 2 3.36 + Antidote 1 0.07 + Herbicide 6 0.07 kg/Ha,5%
same,% Injury Corn,[2]; Insecticide 2 3.36 + Antidote 1 0.14 + Herbicide 4 0.14 kg/Ha,88%
same,% Injury Corn,[2]; Insecticide 2 3.36 + Antidote 1 0.14 + Herbicide 5 0.14 kg/Ha,95%
same,% Injury Corn,[2]; Insecticide 2 3.36 + Antidote 1 0.14 + Herbicide 6 0.14 kg/Ha,63%
same,% Injury VELE,[3]; [6],85%
same,% Injury VELE,[3]; [7],80%
same,% Injury VELE,[3]; [8],93%
same,% Injury VELE,[3]; [9],90%
same,% Injury VELE,"[3]; Insecticide 2 1.68 (foliar) + Antidote 1 0.56 + Herbicide 1 0.56 Kg/Ha PPI, 3 weeks",93%
same,% Injury VELE,[3]; [10],93%
same,% Injury VELE,[3]; [11],0%
"COC(=O)c1c(Cl)nn(C)c1S(=O)(=O)NC(=O)Nc1nc(OC)cc(OC)n1 [Herbicide No. 1, N-[(4,6-dimethoxypyrimidin-2-yl)aminocarbonyl]-3-chloro-4-methoxycarbonyl-5-sulfonamide, reference compound]",% Injury Corn,[1]; [12],0%
same,% Injury Corn,[1]; [13],5%
same,% Injury Corn,[1]; [14],15%
same,% Injury Corn,[1]; [15],28%
same,% Injury Corn,[1]; [16],7%
same,% Injury Corn,[1]; [17],58%
same,% Injury Corn,[1]; [18],18%
same,% Injury Corn,[1]; [19],10%
same,% Injury Corn,[1]; [20],87%
same,% Injury Corn,[1]; [21],10%
same,% Injury Corn,[1]; [22],10%
same,% Injury Corn,[2]; Herbicide 1 0.07 kg/Ha,2%
same,% Injury Corn,[2]; Herbicide 1 0.14 kg/Ha,13%
same,% Injury Corn,[2]; Insecticide 2 3.36 + Herbicide 1 0.07 kg/Ha,0%
same,% Injury Corn,[2]; Insecticide 2 3.36 + Herbicide 1 0.14 kg/Ha,38%
same,inhibition at 140 g/ha,"[4]; read-out: % Inhibition Corn, Herb. No. 1 0.14 kg/Ha alone, PPI, 13 days after planting",10%
same,inhibition at 140 g/ha,"[4]; read-out: % Inhibition Corn, Table 51, Herbicide No. 1 0.14 Kg/Ha, where applied Biocide No. 8 8.96 kg/Ha and antidote 4.48 Kg/Ha, all PPI, observed 13 days after treatment",0%
same,inhibition at 140 g/ha,"[4]; read-out: % Inhibition Corn, Table 52, Herbicide No. 1 0.14 Kg/Ha, where applied Biocide No. 5 8.96 kg/Ha and antidote 4.48 Kg/Ha, all PPI, observed 13 days after treatment",0%
same,inhibition at 140 g/ha,"[5]; 312 h, Table 52, Herbicide No. 1 0.14 Kg/Ha, where applied Biocide No. 5 8.96 kg/Ha and antidote 4.48 Kg/Ha, observed 13 days after treatment",70%
same,% Inhibition SJCA,"[5]; Table 53, where applied Biocide No. 7 8.96 kg/Ha and antidote 4.48 Kg/Ha, observed 13 days after treatment",75%
same,% Inhibition SJCA,"[5]; Table 54, where applied Biocide No. 6 8.96 kg/Ha and antidote 4.48 Kg/Ha, observed 14 days after PPI initiation",65%
same,% Injury VELE,[3]; [12],30%
same,% Injury VELE,[3]; [13],78%
same,% Injury VELE,[3]; [14],30%
same,% Injury VELE,[3]; [15],93%
same,% Injury VELE,[3]; [16],20%
same,% Injury VELE,[3]; [17],95%
same,% Injury VELE,[3]; [18],90%
same,% Injury VELE,[3]; [19],90%
same,% Injury VELE,[3]; [20],98%
same,% Injury VELE,[3]; [21],23%
same,% Injury VELE,[3]; [22],42%
